# Experimental data reported in patent US10413538B2, “Administration of karenitecin for the treatment of platinum and/or taxane chemotherapy-resistant or -refractory advanced ovarian cancer” (priority 2013, dated 2019).
# Entries after “also recorded” stand apart in the source; their conditions may differ. Like-named read-outs stand apart in the source and are kept apart here.
# Legend:
# [1] = system: resistant subline of cells containing less than 4% of the topoisomerase I activity; conditions: subline with <4% topoisomerase I activity; cited from earlier work
# [2] = human, in vivo; cited from earlier work
# MDR-expressing sublines = conditions: P-glycoprotein-associated MDR phenotype; cited from earlier work
# [3] = system: stage III/IV advanced epithelial ovarian cancer resistant or refractory to platinum- and taxane-based chemotherapy; test: Phase III clinical study of Karenitecin versus Topotecan: efficacy (PFS, OS); assay type: in vivo, human
# Protocol: The Primary Endpoint of the disclosed Phase III clinical study was Progression Free Survival (“PFS”); which was defined as the time period from the date of randomization to the date of first radiographically documented Progressive Disease (“PD”) or date of death due to any cause, taking either event date that occurred first. The date of PD was determined by radiographical objective disease (RECIST) measurement method. The Secondary Endpoints of the disclosed Phase III clinical study included: (i) Overall Survival (hereinafter “OS”), defined as the time from the date of randomization to the date of death due to any cause; (ii) Incidence of anemia, defined as the proportion of patients who experience ≥grade 3 anemia based on National Cancer Institute Common Terminology Criteria for Adverse Events (NCI-CTCAE) criteria at any time post-baseline after receiving study treatment; (iii) Incidence of neutropenia (including febrile neutropenia), defined as the proportion of patients who experience ≥grade 3 neutropenia based on NCI-CTCAE criteria at any time post-baseline after receiving study treatment; and (iv) Incidence of thrombocytopenia, defined as the proportion of patients who experience ≥grade 3 thrombocytopenia based on NCI-CTCAE criteria at any time post-baseline after receiving study treatment.
# All patients admitted to this Phase III clinical trial were documented to be platinum- and/or taxane-resistant or refractory and have incurable disease. […] It is important to note that, currently, there is no FDA-approved chemotherapeutic drug for this specific aforementioned indication.
# Approximately 80 study centers participated in this Phase III clinical study. The primary endpoint was Progression Free Survival (PFS), defined as the time period from the date of randomization to the date of first radiographically documented progressive disease or disease progression (“PD”) or date of death due to any cause, taking the event date that occurs first.
# The primary endpoint was Progression Free Survival (PFS); defined as the time period from the date of randomization to the date of first radiographically documented progressive disease (PD) or date of death due to any cause, taking the event date that occurs first. The date of PD was determined by radiographically objective disease (RECIST) measurement. Secondary Endpoints: • Overall Survival (OS), defined as the time from the date of randomization to the date of death due to any cause. • Incidence of anemia, defined as the proportion of patients who experience ≥grade 3 anemia based on National Cancer Institute Common Terminology Criteria for Adverse Events (NCI-CTCAE) criteria at any time post-baseline after receiving study treatment. • Incidence of neutropenia (including febrile neutropenia), defined as the proportion of patients who experience ≥grade 3 neutropenia based on NCI-CTCAE criteria at any time post-baseline after receiving study treatment. • Incidence of thrombocytopenia, defined as the proportion of patients who experience ≥grade 3 thrombocytopenia based on NCI-CTCAE criteria at any time post-baseline after receiving study treatment.
# Patients underwent procedures throughout four (4) defined periods in this study, which are briefly described below. Various clinical, laboratory, and disease evaluations were required for each of these for each periods.
# Period I (Screening and Randomization): Patient eligibility was determined by compliance with protocol-specified inclusion and exclusion criteria. Patients who signed the informed consent, and successfully complete the screening process, including documentation of disease status by radiographic measures, were randomized to receive study treatment.
# Period III (End of Treatment): Within ±3 days of date of treatment discontinuation, end-of treatment procedures will be conducted during Period III.
# [4] = Phase I clinical studies of intravenous Karenitecin (safety, dose-limiting toxicity); assay type: in vivo, human
# Protocol: Results from three Phase I studies indicate that Karenitecin can be safely administered to patients at the dose level of 1.0 mg/m^2/day I.V. over a one hour period of time for 5 consecutive days in a 3-week treatment cycle. […] Any gastrointestinal toxicity is generally ≤grade 2 and is not dose-limiting.
# Intravenous administration of Karenitecin has been evaluated in three Phase I clinical studies in patients with the following cancer types: (i) advanced solid tumors (adult patients) (see, e.g., Schilsky, R. L., Hausheer, F. H., et al., Phase I trial of Karenitecin administered intravenously daily for five consecutive days in patients with advanced solid tumors using accelerated dose titration [abstract]. ASCO Abstract 758 (2000)); (ii) refractory or recurrent solid tumors (pediatric patients); and (iii) recurrent malignant glioma (adult patients). […]
# [5] = system: panel of over twenty (20) human cancer cell lines; test: In vitro studies on a panel of human cancer cell lines; assay type: cell-based
# Topoisomerase I = molecular target: T1, Topoisomerase I (Homo sapiens, UniProt P11387); test: Topoisomerase I inhibition; assay type: biochemical
# T1 sequence (P11387 1-765): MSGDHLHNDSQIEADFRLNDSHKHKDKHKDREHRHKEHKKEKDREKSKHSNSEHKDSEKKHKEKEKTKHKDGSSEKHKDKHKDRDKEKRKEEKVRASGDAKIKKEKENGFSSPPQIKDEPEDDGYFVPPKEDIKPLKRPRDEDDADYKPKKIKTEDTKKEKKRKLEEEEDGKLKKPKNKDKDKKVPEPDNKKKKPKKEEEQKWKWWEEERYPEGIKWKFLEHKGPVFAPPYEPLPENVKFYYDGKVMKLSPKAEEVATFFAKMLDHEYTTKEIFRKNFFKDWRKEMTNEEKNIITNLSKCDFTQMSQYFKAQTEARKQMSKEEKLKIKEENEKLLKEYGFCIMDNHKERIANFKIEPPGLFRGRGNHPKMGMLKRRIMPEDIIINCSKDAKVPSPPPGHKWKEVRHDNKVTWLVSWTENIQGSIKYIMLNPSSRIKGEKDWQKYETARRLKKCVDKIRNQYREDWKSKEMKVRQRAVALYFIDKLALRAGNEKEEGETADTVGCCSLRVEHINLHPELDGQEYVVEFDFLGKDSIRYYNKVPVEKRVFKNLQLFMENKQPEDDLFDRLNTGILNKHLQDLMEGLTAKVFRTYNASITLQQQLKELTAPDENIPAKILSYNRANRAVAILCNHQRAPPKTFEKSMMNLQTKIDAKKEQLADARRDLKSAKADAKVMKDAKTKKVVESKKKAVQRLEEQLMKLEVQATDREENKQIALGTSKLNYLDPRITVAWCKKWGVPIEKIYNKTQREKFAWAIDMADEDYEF
# [6] = Lactone stability and lactone half-life in humans/plasma; assay type: in vivo, human
# [7] = Glucuronidation / metabolism; assay type: in vitro ADME
# advanced ovarian cancer = test: Phase II study in advanced ovarian cancer patients who had failed prior treatments; assay type: in vivo, human
# Excerpt: Intravenous administration of Karenitecin has been evaluated in three Phase I clinical studies in patients with the following cancer types: (i) advanced solid tumors (adult patients) (see, e.g., Schilsky, R. L., Hausheer, F. H., et al., Phase I trial of Karenitecin administered intravenously daily for five consecutive days in patients with advanced solid tumors using accelerated dose titration [abstract]. ASCO Abstract 758 (2000)); (ii) refractory or recurrent solid tumors (pediatric patients); and (iii) recurrent malignant glioma (adult patients). Intravenous administration of Karenitecin has also been evaluated in four Phase 2 clinical studies in adult patients with the following cancer types: (i) primary malignant glioma; (ii) treatment of persistent or recurrent epithelial ovarian or primary peritoneal carcinoma in heavily pre-treated patients; (iii) malignant melanoma (see, e.g., Hausheer, F. H., et al., Phase II trial of Karenitecin (BNP1350) in malignant melanoma: clinical and translational study [abstract]. ASCO Abstract 7554 (2004); and (iv) relapsed or refractory non-small cell lung cancer (see, e.g., Miller, A. A., et al., MR for the Cancer and Leukemia Group B. Phase II trial of Karenitecin in patients with relapsed or refractory advanced non-small cell lung cancer (CALGB 30004) Lung Cancer 48:399-407 (2005)).
# [8] = human, in vivo
# Protocol: The primary endpoint was Progression Free Survival (PFS); defined as the time period from the date of randomization to the date of first radiographically documented progressive disease (PD) or date of death due to any cause, taking the event date that occurs first. The date of PD was determined by radiographically objective disease (RECIST) measurement. […]
# Simultaneous statistical analyses were performed on the clinical trial data from the time points when 254 and 338 Progression Free Survival (PFS) events occurred during the aforementioned Karenitecin Phase III Trial and the following results were observed. […] The PFS benefit for Karenitecin in comparison to Topotecan was determined using an Independent Review Committee (IRC).
# [9] = dog, in vivo, po
# [10] = in vivo, iv
# [11] = system: MDR/MRP, Breast Cancer Resistance Protein (BCRP)
# [12] = system: MDR/MRP, Breast Cancer Resistance Protein (BCRP); conditions: cited from earlier work
# [13] = Preclinical toxicology, oral single daily doses for five consecutive days; conditions: beagle dogs
compound,measurement,setting,value
CC[C@@]1(O)C(=O)OCc2c1cc1n(c2=O)Cc2cc3ccccc3nc2-1 [camptothecin],decrease in sensitivity of resistant subline versus wild-type parental cells,[1],1000 fold
Nc1ccn([C@@H]2O[C@H](CO)[C@@H](O)C2(F)F)c(=O)n1 [Gemcitabine],patients with neutropenia,[2],up to 90%
COc1cc([C@@H]2c3cc4c(cc3[C@@H](O[C@@H]3O[C@@H]5CO[C@@H](C)O[C@H]5[C@H](O)[C@H]3O)[C@H]3COC(=O)[C@H]23)OCO4)cc(OC)c1O [etoposide],resistance of MDR-expressing sublines relative to parental wild-type cells,MDR-expressing sublines,200 fold
"CC[C@@]1(O)C(=O)OCc2c1cc1n(c2=O)Cc2c-1nc1ccccc1c2CC[Si](C)(C)C [Karenitecin, (4S)-4-ethyl-4-hydroxy-11-[2-(trimethylsilyl)ethyl]-1H-pyrano[3′:4′:6,7]indolizino[1,2-b]quinoline-3,14(4H,12H)-dione]","overall survival hazard ratio, Karenitecin vs Topotecan","[3]; Adenocarcinoma (grade ≥2) not otherwise specified, P-value 0.7893",0.898
same,"PFS HR, Karenitecin vs Topotecan","[3]; Adenocarcinoma (grade ≥2) not otherwise specified, P-value=0.3700",0.684
same,"PFS HR, Karenitecin vs Topotecan","[3]; Best response SD after 6 cycles in a first-line setting, P-value=0.9908",0.992
same,"PFS HR, Karenitecin vs Topotecan","[3]; ECOG Performance Status 0, P-value=0.0249",0.662
same,"PFS HR, Karenitecin vs Topotecan","[3]; ECOG Performance Status 2, P-value=0.7481",0.896
same,"PFS HR, Karenitecin vs Topotecan","[3]; FIGO Stage 111B, P-value=0.6225",0.722
same,"overall survival hazard ratio, Karenitecin vs Topotecan","[3]; FIGO Stage IV, P-value 0.4516",0.892
same,"PFS HR, Karenitecin vs Topotecan","[3]; FIGO Stage IV, all events, P-value=0.0556",0.741
same,"PFS HR, Karenitecin vs Topotecan","[3]; FIGO Stage IV, first 254 PFS events, P-value=0.0260",0.669
same,"overall survival hazard ratio, Karenitecin vs Topotecan","[3]; Histological Stage: G1-well differentiated, P-value 0.974",0.9612
same,"PFS HR, Karenitecin vs Topotecan","[3]; Histological Stage: G1-well differentiated, P-value=0.8561",0.904
same,"PFS HR, Karenitecin vs Topotecan","[3]; Histological Stage: G2-moderately differentiated, P-value=0.2982",0.835
same,"overall survival hazard ratio, Karenitecin vs Topotecan","[3]; Histopathology Class: Undifferentiated carcinoma, P-value 0.701",0.6426
same,median PFS advantage in favor of Karenitecin,[3]; Histopathology class: Mucinous adenocarcinoma subtype,2 month
same,"overall survival hazard ratio, Karenitecin vs Topotecan","[3]; Histopathology class: Mucinous adenocarcinoma, P-value 0.7321",0.841
same,"PFS HR, Karenitecin vs Topotecan","[3]; Histopathology class: serous adenocarcinoma, P-value=0.2829",0.873
same,"PFS HR, Karenitecin vs Topotecan","[3]; Ovary as primary site of disease, P-value=0.2606",0.885
same,median progression-free survival (PFS) advantage in favor of Karenitecin (as compared with Topotecan),"[3]; overall trial population, IRC",greater than 6 week
same,"PFS Hazard Ratio (HR), Karenitecin vs Topotecan","[3]; overall trial population, P-value=0.261",0.885
same,"PFS HR, Karenitecin vs Topotecan","[3]; resistant subject sub-population, P-value=0.144",0.822
same,"PFS HR, Karenitecin vs Topotecan","[3]; subpopulation refractory or resistant and/or mucinous, first 254 PFS events, P-value=0.0849",0.770
same,principal and dose-limiting toxicity,"[4]; Phase I, 1.0 mg/m^2/day I.V. over one hour, 5 consecutive days, 3-week cycle","non-cumulative, reversible myelosuppression; also recorded: reversible and non-cumulative neutropenia and thrombocytopenia"
same,serious hypersensitivity reactions reported by patients,[4]; patients receiving Karenitecin to date,no serious hypersensitivity reactions
same,concentrations for inhibiting the growth of human and animal tumor cells in vitro,[5],nanomolar or sub-nanomolar concentrations
same,antitumor potency compared with Topotecan or SN-38,[5]; over twenty human cancer cell lines,significantly more potent antitumor agent than either Topotecan or SN-38
same,Topoisomerase I inhibition,Topoisomerase I,potent inhibitor of Topoisomerase I
same,half-life in active lactone form in plasma compared with other commercially-available camptothecins,[6],longer half-life in its active lactone form in plasma
same,A-ring or B-ring glucuronidation,[7],does not undergo A-ring or B-ring glucuronidation
same,Time to Progression (TTP) compared with historical results reported with Topotecan,advanced ovarian cancer,prolonged Time to Progression (TTP)
same,Grade 3 or 4 anemia events reduced in comparison to the Topotecan arm,"[8]; female, 5 days",27.3%
same,Grade 3 or 4 thrombocytopenia events reduced in comparison to the Topotecan arm,"[8]; female, 5 days",37.4%
same,grade 4 neutropenia reduced in comparison to the Topotecan arm,"[8]; female, 5 days",38.2%
same,safety concerns as monitored by the independent Data and Safety Monitoring Board (DSMB),[8],no safety concerns related to Karenitecin were noted
same,toxicities observed,[9],anorexia; weight loss; gastrointestinal toxicity (manifested as diarrhea with hemorrhage); occasional vomiting; and myelosuppression
same,toxicities observed,[10],"reversible myelosuppression (predominantly neutropenia), diarrhea, emesis and mucositis (canine)"
same,susceptibility to MDR/MRP drug resistance,[11],lacks susceptibility to MDR/MRP drug resistance
same,sensitivity to tumor-mediated drug resistance mechanisms including BCRP,[12],insensitive to all commonly-known tumor-mediated drug resistance mechanisms
same,oral MTD relative to intravenous (I.V.) MTD,[13],approximately 2 times
COc1cccc2c1C(=O)c1c(O)c3c(c(O)c1C2=O)C[C@@](O)(C(=O)CO)C[C@@H]3O[C@H]1C[C@H](N)[C@H](O)[C@H](C)O1 [doxorubicin],resistance of MDR-expressing sublines relative to parental wild-type cells,MDR-expressing sublines,200 fold
